Experimental data taken from patent publication US5773236A, “Assay for glutathiane transferase using polyhaloaryl-substituted reporter molecules” (Molecule Probes, Inc., priority 1997, dated 1998).

What was measured:
[1] = tested on: β-galactosidase; test: Glycosidase analysis in vitro (Example 60); assay type: biochemical; settings: substrate 333 μM, room temperature, 20 minutes
Protocol: The stock reagents required are: 1) Compound 9 (Example 7) 5 mM in ethanol; 2) Reaction buffer: 0.3M potassium phosphate, 3 mM MgCl2 pH 7.5; 3) β-galactosidase (Boehringer-Mannheim), dissolved at 10 mg/mL in 0.05M potassium phosphate, pH 7; 4) Enzyme diluent: 0.01M Tris HCl, 0.01M MgCl2, 0.01M NaCl, 0.01M β-mercaptoethanol, pH 7.5. 130 μL of the reaction buffer is added to a series of rows and columns in a microplate. To each of the wells with reaction buffer is added 10 μL of the substrate solution. The enzyme stock solution is diluted to 1 mg/mL, 0.1 mg/mL, 10 μg/mL, 1 μg/mL, 0.1 μg/mL and 0 μg/mL. To the wells containing reaction buffer and substrate, 10 μL of each of the different concentration enzyme solutions is added. The wells containing 0 μg/mL enzyme serve as controls. The plate is allowed to incubate at room temperature for 20 minutes. Fluorescence of each well is determined using a 485 nm excitation filter, a 530 nm emission filter and gain setting of 40. Using the above conditions, as little as 6.7 ng/mL enzyme can be detected using the substrate at 333 μM concentration. The fluorescence response is linear until the enzyme concentration reaches ~6.7 μg/mL.

[2] = tested on: NIH-3T3 cells (lacZ negative); test: β-galactosidase activity detection in cells by microscopy, lacZ negative (Example 61); assay type: cell-based; settings: 50 nM, 37° C., 35 minutes
Protocol: (§1) NIH-3T3 cells (lacZ negative) and CRE BAG 2 cells (lacZ positive) are obtained from American Type Culture Collection Co., Rockville, Md. They are grown in a humidified atmosphere of 5% CO2 in D-MEM supplemented with 10% bovine calf serum, 50 μg/mL gentamycin, 300 μg/mL L-glutamine and 10 mM HEPES, pH 7.4. A 50 μM stock solution of Compound 9 is prepared in water: dimethylformamide (DMF) (1:1). NIH-3T3 and CRE BAG 2 cells are trypsinized, washed and suspended in D-MEM containing 10% BCS. 10 μL of the cell suspension is added to 0.989 mL of the same medium. 1 μL of the 50 μM substrate solution is added to the cells to obtain a final concentration of 50 nM. Incubation is carried out at 37° C. for 35 minutes. Cells are centrifuged to form a pellet, supernatant is discarded and cells are resuspended in D-MEM with 10% BCS. Cells are mounted on slides and observed by fluorescence microscopy.

[3] = tested on: CRE BAG 2 cells (lacZ positive); test: β-galactosidase / lacZ detection in cells by microscopy, lacZ positive (Example 61); assay type: cell-based; settings: 50 nM, 37° C., 35 minutes
Protocol: as §1

[4] = tested on: β-D-galactosidase; test: Detection of β-D-galactosidase on a membrane blot (Example 64); assay type: biochemical; settings: nitrocellulose, room temperature, 1 hour plus 30 minutes
Protocol: The reagents used are: 1) Compound 9, 5 mM in ethanol; 2) β-D-galactosidase, 10 mg/mL in 0.05M potassium phosphate, pH 7; 3) Enzyme diluent: 0.01M Tris, 0.01M MgCl2, 0.01M mercaptoethanol, 0.01M NaCl, 1% BSA, pH 7.5; 4) 1% BSA in PBS, pH 7.2; 5) Reaction buffer: 0.3M potassium phosphate, 3 mM MgCl2, pH 7.5; 6) Wash buffer: 20 mM Tris, 137 mM NaCl, 0.5% Tween 20, pH 7.5. A stock solution of β-galactosidase is diluted in enzyme diluent to obtain solutions with the following concentrations: 1 μg/μL, 0.1 μg/μL, 0.01 μg/μL, 1 ng/μL, 0.1 ng/μL and 0 ng/μL. 1 μL of each diluted solution is spotted on a two nitrocellulose membranes (1"×1"), pore size 0.45 μM, and dried immediately by blowing argon on the membranes. One of the membranes is blocked by treatment with 1% BSA in PBS for 20 minutes at room temperature. The following mixture is prepared: 4.95 mL of reaction buffer+[…] of Compound 9 stock solution. 2 mL of this solution is added to each of the blots and incubation is carried out at room temperature for 1 hour. The blots are washed once with 2 mL of wash buffer. 0.5 mL of the mixture described above is once again added to the blots and incubation is carried out at room temperature for 30 minutes. The blots are allowed to dry and an image is obtained by illuminating with reflected UV light at 254 nm. […]

For `O=C1OC2(c3ccc(O[C@@H]4O[C@H](CO)[C@H](O)[C@H](O)[C@H]4O)cc3Oc3cc(O[C@@H]4O[C@H](CO)[C@H](O)[C@H](O)[C@H]4O)ccc32)c2ccc(NC(=O)c3c(F)c(F)c(F)c(F)c3F)cc21` [Compound 9, 5-(pentafluorobenzoylamino)fluorescein di-β-D-galactopyranoside], the “enzyme concentration up to which fluorescence response is linear” value [1] was ~ 6.7 μg/mL, the “lowest enzyme concentration detected” value [1] was 6.7 ng/mL and the “staining of cells, fluorescence microscopy” value [2] was “green fluorescent lysosomes with very little cytoplasmic background”. For the same molecule, the “staining of cells, fluorescence microscopy” value [3] was “green fluorescent lysosomes with well-stained green fluorescent cytoplasm” and the “amount of enzyme detected” value [4] was ~ 100 ng.
